According to US20070104652A1, “Pharmaceutical spray formulation comprising a hydro fluor alkane and an acylated cyclodextrin” (priority 2003, published 2007):

How the values were obtained:
[1] = Efficacy of peracetylated beta cyclodextrin as HFA drug suspension stabiliser (phase separation recorded photographically); type: physicochemical; conditions: peracetylated β cyclodextrin at saturation level, phase separation much slower, suspension much finer, head space adhesion less
Protocol: First, reference samples of pure drugs in HFAs were prepared. Then samples with solubilised peracetylated beta (β) cyclodextrin and micronised drug were prepared. The concentration of drug in these samples was the same as in the reference samples. The cyclodextrin concentration was at saturation level.
The reference samples (pure drug) were prepared by weighing the drug in a PET vial. A valve was then crimped on the vial and propellant added under pressure. The vial was then sonicated for at least 15 minutes and left to equilibrate for one week.
The drug—cyclodextrin samples were prepared by weighing a known amount of drug in a PET vial. The vial was then crimped with a continuous valve. The solution of peracetylated beta (β) cyclodextrin was prepared thus: a large amount of cyclodextrin was placed in large metallic can, it was crimped and filled with one of the propellants. This can was left to equilibrate for at least a week at room temperature. When equilibration was reached, the saturated cyclodextrin solution was filtered through a […] PTFE filter into the PET vials containing the known drug amounts. This way the maximum amount of soluble cyclodextrin was used in the suspensions. The concentration of drugs in the vials was then calculated through accurate recording of the weights of propellant/cyclodextrin added.
The phase separation phenomenon present in both samples (pure drug and with the cyclodextrin) was then recorded photographically.

[2] = Solubility of peracetylated cyclodextrins in HFA propellants, assessed visually; type: physicochemical; conditions: equilibrated one week, visual; for solubility in HFA 134a: room temperature; for solubility in HFA 227: HFA 227, room temperature
Protocol: The solubility of peracetylated cyclodextrins (alpha, beta and gamma) in HFA propellants was assessed visually in clear PET vials crimped with a continuous pMDI valve. Known amounts of cyclodextrins were weighed into the PET vials. Continuous valves were crimped on the vial, and HFAs were added under pressure to the required amount. The samples were left to equilibrate over one week and were visually inspected. The solubility of the modified cyclodextrin at room temperature was evaluated by discriminating between samples that were clear by opposition to those samples that still had solid particles in suspension.

| Compound | quality/stability of drug suspension with modified cyclodextrin versus pure drug sample ([1]; HFA 134a) | quality/stability of drug suspension with modified cyclodextrin versus pure drug sample ([1]; HFA 227) | solubility in HFA 134a [2] | solubility in HFA 227 [2] |
| --- | --- | --- | --- | --- |
| CCCC1O[C@@H]2C[C@H]3[C@@H]4CCC5=CC(=O)C=C[C@]5(C)[C@H]4[C@@H](O)C[C@]3(C)[C@]2(C(=O)CO)O1 (some centres unmarked) [Budesonide] | improved | much improved |  |  |
| CC(C)(C)NCC(O)c1cc(O)cc(O)c1 (centres unmarked) [Terbutaline Sulphate] | much improved | far more stable |  |  |
| CC(=O)OCC1OC2OC3C(COC(C)=O)OC(OC4C(COC(C)=O)OC(OC5C(COC(C)=O)OC(OC6C(COC(C)=O)OC(OC7C(COC(C)=O)OC(OC1C(OC(C)=O)C2OC(C)=O)C(OC(C)=O)C7OC(C)=O)C(OC(C)=O)C6OC(C)=O)C(OC(C)=O)C5OC(C)=O)C(OC(C)=O)C4OC(C)=O)C(OC(C)=O)C3OC(C)=O (stereo not drawn) [peracetylated alpha (α) cyclodextrin] |  |  | above 1 % w/w | above 0.5 % w/w |
| peracetylated beta (β) cyclodextrin |  |  | above 1 % w/w | above 0.1 % w/w |
